From US7056948B2, “Use of odor reducing and cross-adapting agents to reduce animal waste malodors” (Monell Chemical Senses Center, priority 2000, dated 2006)

Tests used:
[1] = Initial olfactory evaluation by judges of swine slurry treated with a single odor-reducing or cross-adapting agent; conditions: initial olfactory evaluations by several judges; 1-10% by weight
Description: We attempted amelioration of odor from swine slurry. Swine slurry is a highly malodorous aqueous mixture of pig feces, urine, body secretions and spent feed. Each concentration was mixed with 1 gm of untreated swine slurry. Untreated swine slurry served as a control.

[2] = cited from earlier work

Substance | suppression of the stronger malodor notes in swine slurry [1] | reduction in malodor in patients with urinary and fecal incontinence ([2]; 100-200 mg doses, after the first week of treatment) | dosages safely used ([2]; Chernomorsky et al.) | control of malodors in colostomy patients ([2]; oral, 100-200 mg daily) | side effects in colostomy patients ([2]; oral, 100-200 mg daily)
bismuth subgallate [BiG] | appeared to suppress the stronger malodor notes |  |  |  | 
chlorophyllin copper complex [CCC] | appeared to suppress the stronger malodor notes | marked reduction in malodor | up to 800 mg/day | sufficient to control malodors | without undesirable side effects
